Earlier results, collected in US8394428B1, “Formulations and methods for preventing eyebrow hair loss” (RMV Trademarks, LLC, priority 2010, dated 2013).

System: hair loss in human scalp
Details: topical application, after administration of cyclophosphamide

C=C1/C(=C\C=C2/CCC[C@]3(C)[C@@H]([C@H](C)CCCC(C)(C)O)CC[C@@H]23)C[C@@H](O)C[C@@H]1O [1,25-dihydroxyvitamin D3]
Prevention or retardation of hair loss: failed to prevent or retard hair loss
